According to publication PMC8554850, “Allergens of the urushiol family promote mitochondrial dysfunction by inhibiting the electron transport at the level of cytochromes b and chemically modify cytochrome c1” (Biological Research, 2021):

Key:
[1] = target: T1, cytochrome c1 (Bos taurus, UniProt P00125); assay: tritium labelling of mitochondria, 1D and 2D-PAGE photofluorography, western blot, tryptic mass fingerprint; assay type: binding; settings: covalent; labelled compound; 5 µM, 30 min, 25 °C, then chased with 1 mM cold litreol; Lys202 and N-terminal peptide proposed
T1 construct: gene CYC1; native, in isolated heart mitochondria (complex III, inner membrane); about 27 kD on SDS-PAGE; printed peptides SDLELHPPSYPWSHR (1-15) and WAAEPEHDHRK (192-202)
T1 sequence (P00125 85-325): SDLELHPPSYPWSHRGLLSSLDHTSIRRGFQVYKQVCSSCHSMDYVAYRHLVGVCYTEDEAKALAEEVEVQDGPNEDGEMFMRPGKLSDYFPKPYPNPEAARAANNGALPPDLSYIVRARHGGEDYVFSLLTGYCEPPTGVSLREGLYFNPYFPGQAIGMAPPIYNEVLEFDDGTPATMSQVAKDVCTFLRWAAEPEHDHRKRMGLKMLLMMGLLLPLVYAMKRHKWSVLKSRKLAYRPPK

[2] = target: T2, complex III (cytochrome bc1) (Rattus norvegicus, UniProt P00159); assay: duroquinol:cytochrome c reduction, Hanes-Woolf; cytochrome b redox spectrophotometry; assay type: biochemical
T2 construct: gene Mt-cyb; native complex III in liver mitochondria / submitochondrial particles; with Cytochrome c1, heme protein, mitochondrial; Cytochrome b-c1 complex subunit Rieske, mitochondrial
T2 sequence (P00159 whole entry): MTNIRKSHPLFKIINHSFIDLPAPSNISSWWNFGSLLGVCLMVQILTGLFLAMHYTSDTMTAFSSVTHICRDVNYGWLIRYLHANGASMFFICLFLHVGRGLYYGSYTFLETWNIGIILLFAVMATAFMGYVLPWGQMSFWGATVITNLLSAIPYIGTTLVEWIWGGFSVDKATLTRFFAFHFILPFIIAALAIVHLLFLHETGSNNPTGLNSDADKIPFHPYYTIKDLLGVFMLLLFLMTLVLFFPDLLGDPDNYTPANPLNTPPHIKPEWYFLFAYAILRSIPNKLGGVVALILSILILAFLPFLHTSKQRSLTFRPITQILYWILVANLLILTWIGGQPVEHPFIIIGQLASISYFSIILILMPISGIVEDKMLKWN
T2 sequence (D3ZFQ8 87-326 partner): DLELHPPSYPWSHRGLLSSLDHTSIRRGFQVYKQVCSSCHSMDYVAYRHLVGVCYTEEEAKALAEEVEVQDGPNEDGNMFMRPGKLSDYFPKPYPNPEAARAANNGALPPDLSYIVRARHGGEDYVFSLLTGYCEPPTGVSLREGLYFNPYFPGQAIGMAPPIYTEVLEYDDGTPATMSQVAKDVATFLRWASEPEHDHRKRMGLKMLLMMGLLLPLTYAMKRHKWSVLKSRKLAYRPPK
T2 sequence (P20788 79-274 partner): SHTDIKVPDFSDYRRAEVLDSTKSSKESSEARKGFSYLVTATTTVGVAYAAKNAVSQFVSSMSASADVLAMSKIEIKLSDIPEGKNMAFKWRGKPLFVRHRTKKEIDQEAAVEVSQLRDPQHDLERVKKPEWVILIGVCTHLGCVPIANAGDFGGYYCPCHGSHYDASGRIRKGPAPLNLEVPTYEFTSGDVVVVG

Question: With `CCCCCCCCCCCCCCCc1cccc(O)c1O` [3H-litreol] as the compound, how does the “tritium labelling of mitochondria, 1D and 2D-PAGE photofluorography, western blo” value [1] read?
Answer: Litreol binds to an inner mitochondrial membrane protein from bovine heart mitochondria

Question: With `Cc1c(C)c(O)c(C)c(C)c1O` [duroquinol] as the compound, how does the “duroquinol:cytochrome c reduction, Hanes-Woolf; cytochrome b redox spectrophotom” value ([2]; electron donor, acceptor cytochrome c) read?
Answer: The enzyme kinetics of complex III for Dur and cytochrome c were measured

Question: How did the “duroquinol:cytochrome c reduction, Hanes-Woolf; cytochrome b redox spectrophotom” value ([2]; noncompetitive vs duroquinol and cytochrome c, 10 µM litreol, electron flow halted between bL and bH, pH 7.4) turn out when `CCCC/C=C\CCCCCCCCCc1cccc(O)c1O` [litreol, 3-(10-Z-pentadecenyl)-catechol] was run?
Answer: Litreol is a noncompetitive inhibitor of complex III at the level of the cytochrome bc1
